Values joined by “and” are separate entries in the source; they are usually repeats but may differ in a detail not shown here. Equal entries are not always repeated.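 These data come from cells grown in 96-well plates and exposed to compound for 48 hours at five concentrations. GI50 = concentration required for 50% inhibition of growth. TGI: total growth inhibition.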
Experiments:
Assay in all cases: NCI tumour cell line growth inhibition, 48 h; in the data active means GI50 below about 0.43 µM; inactive means the rest
[1] = system: 786-0 renal
[2] = system: A498 renal
[3] = system: ACHN renal
[4] = system: BT-549 breast
[5] = system: CAKI-1 renal
[6] = system: CCRF-CEM leukemia
[7] = system: COLO 205 colon
[8] = system: DU-145 prostate
[9] = system: EKVX NSCLC
[10] = system: HCC-2998 colon
[11] = system: HCT-116 colon
[12] = system: HCT-15 colon
[13] = system: HOP-62 NSCLC
[14] = system: HOP-92 NSCLC
[15] = system: HS 578T breast
[16] = system: HT29 colon
[17] = system: IGROV1 ovarian
[18] = system: K-562 leukemia
[19] = system: KM12 colon
[20] = system: M14 melanoma
[21] = system: MALME-3M melanoma
[22] = system: MCF7 breast
[23] = system: MDA-MB-231 breast
[24] = system: MDA-MB-435
[25] = system: NCI-H226 lung
[26] = system: NCI-H23 lung
[27] = system: NCI-H460 lung
[28] = system: NCI-H522 lung
[29] = system: NCI/ADR-RES ovarian
[30] = system: OVCAR-3 ovarian
[31] = system: OVCAR-4 ovarian
[32] = system: OVCAR-5 ovarian
[33] = system: OVCAR-8 ovarian
[34] = system: PC-3 prostate
[35] = system: RPMI-8226 leukemia
[36] = system: RXF 393 renal
[37] = system: SF-268 CNS
[38] = system: SF-295 CNS
[39] = system: SF-539 CNS
[40] = system: SK-MEL-2 melanoma
[41] = system: SK-MEL-28 melanoma
[42] = system: SK-MEL-5 melanoma
[43] = system: SK-OV-3 ovarian
[44] = system: SN12C renal
[45] = system: SNB-19 CNS
[46] = system: SNB-75 CNS
[47] = system: SR leukemia
[48] = system: SW-620 colon
[49] = system: T-47D breast
[50] = system: TK-10 renal
[51] = system: U251 CNS
[52] = system: UACC-257 melanoma
[53] = system: UO-31 renal

C=C/C=C/[C@@H](O)CC(=C)C[C@H]1OC2[C@H](C)[C@@H](OC(=O)C[C@H]3C[C@H](OC(C)=O)C[C@@]4(C[C@@](C)(O)C[C@H](CC(=C)[C@@H](C)[C@H](OC(C)=O)[C@H](C)C(=O)C[C@@H]5C[C@H](OC)CC6(C[C@@H](O)C[C@H](/C=C\CCC[C@H]7O[C@](O)(C=C[C@H]7C)[C@H]2O)O6)O5)O4)O3)[C@@H]1O
2.72 nM and < 2.5 nM: TGI [10]
164 nM: TGI [29]
5.44 nM: TGI [2]
5.29 nM: TGI [27]
5.71 nM and 3.27 nM: TGI [42]
active: GI50 [1] 0.572 nM and 2.5 nM | GI50 [2] 0.388 nM and 2.5 nM | GI50 [3] 4.72 nM and 8.56 nM | GI50 [4] 2.5 nM | GI50 [5] 5.38 nM and 2.5 nM | GI50 [6] 2.5 nM | GI50 [7] 0.359 nM and < 2.5 nM | GI50 [8] 1.2 nM and 2.5 nM | GI50 [10] 0.591 nM and < 2.5 nM | GI50 [12] 6.19 nM and 2.5 nM | GI50 [13] 0.252 nM and 2.5 nM | GI50 [14] 22.7 nM and 2.5 nM | GI50 [15] 1.77 nM | GI50 [16] 2.5 nM | GI50 [17] 1.58 nM and < 2.5 nM | GI50 [19] 0.327 nM and 2.5 nM | GI50 [21] 2.5 nM | GI50 [22] < 2.5 nM | GI50 [23] 0.409 nM and 2.5 nM | GI50 [24] < 2.5 nM | GI50 [25] 0.503 nM and 2.5 nM | GI50 [26] 0.475 nM and < 2.5 nM | GI50 [27] 0.798 nM and 2.5 nM | GI50 [28] 0.825 nM and < 2.5 nM | GI50 [30] < 2.5 nM | GI50 [31] 0.835 nM and 2.5 nM | GI50 [32] 2.93 nM and 2.5 nM | GI50 [33] 0.53 nM and 2.5 nM | GI50 [34] 2.5 nM | GI50 [35] 2.5 nM | GI50 [36] 2.5 nM | GI50 [37] 4.06 nM and 2.5 nM | GI50 [38] 0.492 nM and < 2.5 nM | GI50 [39] < 2.5 nM | GI50 [40] 2.5 nM | GI50 [42] 0.327 nM and 2.5 nM | GI50 [43] 0.465 nM and 2.5 nM | GI50 [44] 0.339 nM and 2.5 nM | GI50 [45] 0.625 nM and 2.5 nM | GI50 [47] 2.5 nM | GI50 [48] 1.23 nM and 2.5 nM | GI50 [50] 1.62 nM and 2.5 nM | GI50 [52] 2.48 nM
7.09 nM: TGI [20]
> 25000 nM: TGI [1] | TGI [3] | TGI [4] | TGI [6] | TGI [9] | TGI [13] | TGI [18] | TGI [31] | TGI [32] | TGI [34] | TGI [41] | TGI [45] | TGI [46] | TGI [47] | TGI [48] | TGI [49] | TGI [51] | TGI [52]
2.9 nM and < 2.5 nM: TGI [38]
11.2 nM: TGI [11]
3.62 nM: TGI [23]
inactive: GI50 [46] > 25000 nM
< 2.5 nM: TGI [7] | TGI [17] | TGI [22] | TGI [24] | TGI [26] | TGI [28] | TGI [30] | TGI [39]
54.2 nM: TGI [36]
3.08 nM: TGI [40]
82.1 nM: TGI [35]
15100 nM: TGI [14]
> 9460 nM: TGI [12]
> 10900 nM: TGI [53]
41.3 nM and 277 nM: TGI [37]
8.2 nM: TGI [15]
